Reference: paper PMC5394417, “Investigating the molecular mechanism of positive and negative allosteric modulators in the calcium-sensing receptor dimer” (Scientific Reports, 2017)

Target: T1, HA-F821A CaSR mutant (Rattus norvegicus, UniProt P48442, F821A)
T1 construct: mGluR5 signal peptide (N); expressed in transfected cells; host or cells: HEK293T
T1 sequence (P48442 20-1079 F821A): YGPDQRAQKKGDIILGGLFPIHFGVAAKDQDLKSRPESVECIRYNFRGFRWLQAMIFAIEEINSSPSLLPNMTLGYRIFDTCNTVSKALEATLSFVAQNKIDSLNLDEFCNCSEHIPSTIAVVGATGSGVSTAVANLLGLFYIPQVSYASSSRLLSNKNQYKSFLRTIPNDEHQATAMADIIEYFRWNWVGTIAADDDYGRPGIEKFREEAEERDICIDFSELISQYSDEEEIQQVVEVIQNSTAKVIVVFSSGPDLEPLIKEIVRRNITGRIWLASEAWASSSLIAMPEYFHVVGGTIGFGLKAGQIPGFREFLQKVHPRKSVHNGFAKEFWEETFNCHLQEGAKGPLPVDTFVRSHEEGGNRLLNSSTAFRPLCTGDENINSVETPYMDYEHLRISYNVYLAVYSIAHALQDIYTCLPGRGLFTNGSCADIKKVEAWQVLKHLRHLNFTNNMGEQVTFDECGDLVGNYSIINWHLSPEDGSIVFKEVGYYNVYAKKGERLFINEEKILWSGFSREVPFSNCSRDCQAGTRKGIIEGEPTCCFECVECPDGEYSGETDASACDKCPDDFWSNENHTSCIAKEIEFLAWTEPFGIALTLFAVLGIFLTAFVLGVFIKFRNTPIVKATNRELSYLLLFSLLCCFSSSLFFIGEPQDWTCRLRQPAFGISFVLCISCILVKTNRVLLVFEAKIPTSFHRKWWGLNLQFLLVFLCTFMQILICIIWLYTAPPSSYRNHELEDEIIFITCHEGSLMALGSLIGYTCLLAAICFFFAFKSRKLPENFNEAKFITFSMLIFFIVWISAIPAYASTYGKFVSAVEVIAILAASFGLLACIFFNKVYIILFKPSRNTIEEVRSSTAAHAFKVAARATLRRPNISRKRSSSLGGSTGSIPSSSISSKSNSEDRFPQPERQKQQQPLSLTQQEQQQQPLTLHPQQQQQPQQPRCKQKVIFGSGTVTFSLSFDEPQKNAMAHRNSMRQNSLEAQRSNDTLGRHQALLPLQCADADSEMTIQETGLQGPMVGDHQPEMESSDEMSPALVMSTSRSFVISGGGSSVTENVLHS
Test: IP-One assay, HEK293T transiently transfected
Assay type: cell-based

EC50 (Ca^2+ alone): 2350 µM | pEC50 ± S.E.M. (Ca^2+ alone): 2.63 ± 0.02 | Max ± S.E.M. (Ca^2+ alone, normalized to maximum response of WT CaSR): 87 ± 4.3% | EC50 (Ca^2+ with 1 μM NPS R-568): 1920 µM | pEC50 ± S.E.M. (Ca^2+ with 1 μM NPS R-568): 2.72 ± 0.01 | Max ± S.E.M. (Ca^2+ with 1 μM NPS R-568, normalized to maximum response with Ca^2+ alone for the construct): 110 ± 14% | EC50 (Ca^2+ with 5 μM NPS 2143): 5720 µM | pEC50 ± S.E.M. (Ca^2+ with 5 μM NPS 2143): 2.25 ± 0.05 | Max ± S.E.M. (Ca^2+ with 5 μM NPS 2143, normalized to maximum response with Ca^2+ alone for the construct): 51 ± 8.0%
SMILES: [Ca+2] [Ca^2+]
